Drawing on US10501460B2, “Heterocyclic compounds and uses thereof” (Plexxikon Inc., priority 2013, dated 2019), this text covers IC50 for 24 compounds.

Broadly, the IC50 is the point on the concentration scale where inhibition reaches its midpoint.

In one assay the test system is bromodomain. Briefly: Bromodomain cell assays of Example 40 (at least one of them). The class given is cell-based. As to conditions: in at least one of the bromodomain cell assays described in Example 40. The gist of the method:
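Growth inhibition: 3000 MV-4-11, MOLM-13, MM.1S or neuroblastoma cells/well got an 8-point 1:3 series from 10 μM top (0.2% DMSO) for 72 h, then CellTiter-Glo luminescence. Myc reporter: MV-4-11 with E-box firefly luciferase, 24 h exposure, One-Glo luminescence plus CellTiter-Fluo cell count. pIC50 from four-parameter fit.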

The next assay deals with T1, BRD4-BD1 (44-164) (Homo sapiens, UniProt O60885).
T1 construct: BRD4-BD1 (44-164); made in house; host or cells: E. coli BL21-CodonPlus (DE3)
Briefly: Alphascreen binding assay BRD4-BD1 (BRD4 biochemical inhibitory activity). As to conditions: read-out: Biochemical activity (IC50 μM) BRD4(1) H4. As to the method: Binding of compounds of formula (I) with bromodomain 2, 3 4 was assessed using Alphascreen binding assay. The inhibition of the interaction between bromodomain and its acetylated target protein (Filippakopoulos P et al. 2012) was measured quantitatively using recombinant BRD proteins, an acetylated Histone 4 peptide and AlphaScreen™ technology. In absence of inhibition the BRD protein bound to AlphaScreen™ nickel chelate acceptor beads can interact with the acetylated Histone 4 peptide which is immobilized by the AlphaScreen™ Streptavidin coated beads. This interaction brings donor and acceptor beads in proximity. The close proximity allows the singlet oxygen produced by laser excitation of the donor beads to reach the acceptor beads and generate a luminescence signal. BRD inhibitors result in a decrease in the proximity signal through an inhibition of the BRD—acetylated peptide interaction.
Recombinant human bromodomains containing the N-terminal bromodomain (BRD2-BD1 (71-194), BRD3-BD1 (24-144) and BRD4-BD1 (44-164)) or dual bromodomains (BRD4-BD12 (1-477), BRD4-BD12 (1-472)) were prepared and purified as described in protein expression and purification session. The peptide is human Histone H41-21K5AcK8AcK12AcK16Ac-Biotin (Anaspec Calif., USA).
Protocol for BRD2, BRD3 and BRD4 assay: All components are prepared in buffer composed of 50 mM HEPES pH 7.5, 100 mM NaCl, 0.01% bovine serum albumin (“BSA”), 0.01% Triton X-100, 2 mM dithiothreitol (“DTT”). 7 μL of Bromodomain protein and 7 μL of peptide are added to wells containing 1 μL of various concentrations of test compounds of formula (I) or DMSO vehicle in an Alphaplate (PerkinElmer Ga., USA) and incubated for 1 hour at room temperature. 4 μL donor and acceptor bead mixture is then added with final concentrations of 7.5 μg/ml. 30 minutes after bead addition, Alpha signal is read on the Envision spectrometer ([…]Ex 680 nm, […]Em 520-620 nm). Final concentrations of bromodomain proteins and peptide are as shown below.
All data was normalized to the mean of 16 high and 16 low control wells on each plate. A four parameter curve fit of the following formula was then applied: Y=a+(b−a)/(1+(x/c)^d) Where ‘a’ is the minimum, ‘b’ is the maximum, ‘c’ is the pIC50 and ‘d’ is the Hill slope. Protein Expression and Purification
Recombinant human bromodomains containing the N-terminal bromodomain (BRD2-BD1 (71-194), BRD3-BD1 (24-144) and BRD4-BD1 (44-164)) or dual bromodomains (BRD4-BD12 (1-477), BRD4-BD12 (1-472)) were expressed in E. coli cells (in a modified pET vector) with an N-terminal six-His tag and purified using a combination of both IMAC (Ni-affinity) and size exclusion chromatography steps.
Recombinant BRD proteins were expressed using the E. coli strain BL21-CodonPlus (DE3) (Agilent Technologies Calif., USA). Cells were grown in Terrific Broth (TB) media to an OD600 of 1.2 at 37° C. at which temperature was reduced to 25° C., protein was induced with 1.0 mM ispropyl-β-D-thiogalactopyranoside (“IPTG”) for 12-18 hours and harvested by centrifugation at 8000×g for 20 minutes. Cells were re-suspended in 0.1M K2PO4 pH 8.0, 250 mM NaCl, 10% Glycerol, 0.75% NP-40, 25 mM Imidazole, 5 mM beta-mercaptoethanol (“BME”) with 0.2 mg/ml Lysosyme, 2.0 mM phenylmethanesulfonyl fluoride (“PMSF”), 25 μg/ml DNAse I, incubated on ice for 30 minutes and lyzed with a cell disruptor (MicroFluidics Mass., USA). The lysate was clarified by centrifugation at 20,000×g for 2 hours. The protein was captured with Ni-NTA resin (Life Technologies, USA). Contaminating proteins were washed off with 25 mM Tris-HCl pH 8.3, 250 mM NaCl, 12% Glycerol and 50 mM Imidazole. Following 3× wash steps, protein was eluted step wise using a 50 mM HEPES pH 7.5, 500 mM NaCl and 400 mM Imidazole. The protein was further purified using Gel Filtration column 26/600 Superdex 200 (GE Biosciences NJ, USA) in 50 mM HEPES pH 7.5, 250 mM NaCl. The protein was aliquoted and flash-frozen in liquid Nitrogen. […]
(In general: In Alpha technology, singlet oxygen from a donor bead excites a nearby acceptor bead.)

As to `Cc1noc(C)c1-c1cnc2[nH]c(-c3ccccc3)cc2c1` [P-0001, 3,5-dimethyl-4-(2-phenyl-1H-pyrrolo[2,3-b]pyridin-5-yl)isoxazole], the results for the IC50 in the assay on bromodomain and on BRD4-BD1 (44-164) were < 10 µM and 1 to 10 µM, respectively.

Take `Cc1noc(C)c1-c1ccc2[nH]ccc2c1` [P-0002, 4-(1H-indol-5-yl)-3,5-dimethyl-isoxazole]: the IC50 in the assay on bromodomain was < 10 µM; on BRD4-BD1 (44-164), 1 to 10 µM.

For `Cc1noc(C)c1-c1cnc2[nH]cc(C(=O)c3cccnc3)c2c1` [P-0004, [5-(3,5-dimethylisoxazol-4-yl)-1H-pyrrolo[2,3-b]pyridin-3-yl]-(3-pyridyl)methanone], the IC50 in the assay with bromodomain was < 10 µM; at BRD4-BD1 (44-164), 1 to 10 µM.

Consider `Cc1noc(C)c1-c1cnc2[nH]c(C)c(C(=O)c3cccnc3)c2c1` [P-0006, [5-(3,5-dimethylisoxazol-4-yl)-2-methyl-1H-pyrrolo [2,3-b]pyridin-3-yl]-(3-pyridyl)methanone], for which the IC50 in the assay on bromodomain is < 10 µM; on BRD4-BD1 (44-164), 1 to 10 µM.

On to `Cc1noc(C)c1-c1cnc2[nH]c(-c3ccc(F)cc3)c(C(=O)c3cccnc3)c2c1` [P-0008, [5-(3,5-dimethylisoxazol-4-yl)-2-(4-fluorophenyl)-1H-pyrrolo[2,3-b]pyridin-3-yl]-(3-pyridyl)methanone], for which the IC50 in the assay on bromodomain is < 10 µM; on BRD4-BD1 (44-164), 1 to 10 µM.

Turning to `Cc1noc(C)c1-c1ccc2[nH]cc(CCN3CCCC3)c2c1` [P-0010, 3,5-dimethyl-4-[3-(2-pyrrolidin-1-ylethyl)-1H-indol-5-yl]isoxazole], the IC50 in the assay with bromodomain is < 10 µM; at BRD4-BD1 (44-164), 1 to 10 µM.

As to `Cc1noc(C)c1-c1cnc2[nH]cc(Cc3ccc(C(F)(F)F)cc3)c2c1` [P-0015, 3,5-dimethyl-4-[3-[[4-(trifluoromethyl)phenyl]methyl]-1H-pyrrolo[2,3-b]pyridin-5-yl]isoxazole], the IC50 in the assay on bromodomain was < 10 µM; on BRD4-BD1 (44-164), 1 to 10 µM.

Turning to `Cc1noc(C)c1-c1cnc2[nH]cc(C(=O)c3ccc(C(F)(F)F)cc3)c2c1` [P-0016, [5-(3,5-dimethylisoxazol-4-yl)-1H-pyrrolo[2,3-b]pyridin-3-yl]-[4-(trifluoromethyl)phenyl]methanone], the IC50 with bromodomain is < 10 µM; on BRD4-BD1 (44-164), 1 to 10 µM.

Turning to `Cc1noc(C)c1-c1cnc2cc[nH]c2c1` [P-0018, 3,5-dimethyl-4-(1H-pyrrolo[3,2-b]pyridin-6-yl)isoxazole], the values for the IC50 in the assay with bromodomain and at BRD4-BD1 (44-164) were < 10 µM and 1 to 10 µM, respectively.

Regarding `CCc1[nH]c2ncc(-c3c(C)noc3C)cc2c1Cc1cccc(OC(F)(F)F)c1` [P-0050, 4-[2-ethyl-3-[[3-(trifluoromethoxy)phenyl]methyl]-1H-pyrrolo[2,3-b]pyridin-5-yl]-3,5-dimethyl-isoxazole], the IC50 was < 10 µM in the assay on bromodomain and 10 to 200 µM on BRD4-BD1 (44-164).

On to `COc1ccccc1S(=O)(=O)n1ccc2ncc(-c3c(C)noc3C)cc21` [P-0065, 4-[1-(2-methoxyphenyl)sulfonylpyrrolo[3,2-b]pyridin-6-yl]-3,5-dimethyl-isoxazole], for which the IC50 in the assay on bromodomain is < 10 µM; on BRD4-BD1 (44-164) it was 1 to 10 µM.

With `Cc1noc(C)c1-c1cnc2ccn(S(=O)(=O)N3CCCC3)c2c1` [P-0068, 3,5-dimethyl-4-(1-pyrrolidin-1-ylsulfonylpyrrolo [3,2-b]pyridin-6-yl)isoxazole], the concentration for half-maximal inhibition (IC50) in the assay with bromodomain is < 10 µM; at BRD4-BD1 (44-164) it was 1 to 10 µM.

Consider `COC(c1c[nH]c2cc(-c3c(C)noc3C)cnc12)C1CC1` (stereo not drawn) [P-0069], for which the IC50 in the assay on bromodomain was < 10 µM; on BRD4-BD1 (44-164), 1 to 10 µM.

As for `Cc1noc(C)c1-c1cnc2c(CC3CC3)c[nH]c2c1` [P-0070, 4-[3-(cyclopropylmethyl)-1H-pyrrolo[3,2-b]pyridin-6-yl]-3,5-dimethyl-isoxazole], the IC50 was < 10 µM in the assay on bromodomain and 1 to 10 µM at BRD4-BD1 (44-164).

Regarding `Cc1noc(C)c1-c1cnc2c(I)c[nH]c2c1` [P-0072, 4-(3-iodo-1H-pyrrolo[3,2-b]pyridin-6-yl)-3,5-dimethyl-isoxazole], the 50% inhibitory concentration (IC50) is < 10 µM in the assay on bromodomain and 1 to 10 µM on BRD4-BD1 (44-164).

As for `Cc1noc(C)c1-c1cnc2c(CC3CC3)cn(S(=O)(=O)CCC(F)(F)F)c2c1` [P-0074, 4-[3-(cyclopropylmethyl)-1-(3,3,3-trifluoropropylsulfonyl)pyrrolo[3,2-b]pyridin-6-yl]-3,5-dimethyl-isoxazole], the IC50 was < 10 µM in the assay with bromodomain and 1 to 10 µM on BRD4-BD1 (44-164).

`Cc1noc(C)c1-c1cnc2c(C#N)cn(S(=O)(=O)c3ccccc3)c2c1` [P-0081, 1-(benzenesulfonyl)-6-(3,5-dimethylisoxazol-4-yl)pyrrolo[3,2-b]pyridine-3-carbonitrile]: the IC50 was < 10 µM in the assay on bromodomain and ≤ 1 µM at BRD4-BD1 (44-164).

Regarding `Cc1noc(C)c1-c1cnc2c(C#N)c[nH]c2c1` [P-0082, 6-(3,5-dimethylisoxazol-4-yl)-1H-pyrrolo[3,2-b]pyridine-3-carbonitrile], the IC50 with bromodomain was < 10 µM; at BRD4-BD1 (44-164), 1 to 10 µM.

Consider `Cc1noc(C)c1-c1cnc2[nH]cc(I)c2c1` [P-0086, 4-(3-iodo-1H-pyrrolo[2,3-b]pyridin-5-yl)-3,5-dimethyl-isoxazole], for which the IC50 in the assay on bromodomain was < 10 µM; on BRD4-BD1 (44-164), 1 to 10 µM.

For the compound `Cc1noc(C)c1-c1cnc2c(c1)c(I)cn2S(=O)(=O)c1ccccc1` [P-0087, 4-[1-(benzenesulfonyl)-3-iodo-pyrrolo[2,3-b]pyridin-5-yl]-3,5-dimethyl-isoxazole], the IC50 is < 10 µM in the assay on bromodomain and 1 to 10 µM at BRD4-BD1 (44-164).

For `[2H]C([2H])([2H])n1cc(I)c2cc(-c3c(C)noc3C)cnc21` [P-0088, 4-[3-iodo-1-(trideuteriomethyl)pyrrolo[2,3-b]pyridin-5-yl]-3,5-dimethyl-isoxazole], the IC50 with bromodomain is < 10 µM; at BRD4-BD1 (44-164), 1 to 10 µM.

With `Cc1noc(C)c1-c1cnc2c(c1)c(C(O)C1CCS(=O)(=O)CC1)cn2S(=O)(=O)c1ccccc1` (stereo not drawn) [P-0094, [1-(benzenesulfonyl)-5-(3,5-dimethylisoxazol-4-yl)pyrrolo[2,3-b]pyridin-3-yl]-(1,1-dioxothian-4-yl)methanol], the IC50 with bromodomain was < 10 µM; at BRD4-BD1 (44-164), 1 to 10 µM.

In the case of `Cc1noc(C)c1-c1cnc2c(c1)c(C(F)C1CCS(=O)(=O)CC1)cn2S(=O)(=O)c1ccccc1` (stereo not drawn) [P-0095, 4-[[1-(benzenesulfonyl)-5-(3,5-dimethylisoxazol-4-yl)pyrrolo[2,3-b]pyridin-3-yl]-fluoro-methyl]thiane 1,1-dioxide], the IC50 with bromodomain was < 10 µM; on BRD4-BD1 (44-164), 1 to 10 µM.

Turning to `Cc1noc(C)c1-c1cnc2c(c1)c(CC1CCS(=O)(=O)CC1)cn2S(=O)(=O)c1ccccc1` [P-0096, 4-[[1-(benzenesulfonyl)-5-(3,5-dimethylisoxazol-4-yl)pyrrolo[2,3-b]pyridin-3-yl]methyl]thiane 1,1-dioxide], the IC50 in the assay with bromodomain is < 10 µM; on BRD4-BD1 (44-164), 1 to 10 µM.
